# Assay results from the supplement of paper PMC11061612.
# Tests used:
# [1] = system: NCI-H1876 (Small Cell Lung Carcinoma); experiment: combination Emax (second highest fraction inhibited in the dose matrix, 72 h); higher = more inhibition; extreme values may be limits of the assay
# Summary of the method: (§1)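 Cell lines grown in DMEM/F12 or RPMI with 10% FBS were plated in 1536-well plates and held 24 hours at 37°C, 5% CO2 before 72 hours of exposure to two-drug dose matrices, with DMSO typically at 0.2%. CellTiter-Glo 2.0 luminescence gave viability, which was converted to inhibition. Vehicle wells were set to 0 and blank wells to 1. Combination Emax is the second-highest inhibition in the matrix, and Bliss excess is the observed combination effect minus the expected EA + EB − EA·EB, where EA and EB are the single-agent effects.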
# [2] = system: OAW-28 (Ovarian Carcinoma); experiment: as above
# Summary of the method: as §1
smiles,measurement,setting,value
"CS(=O)(=O)CCNCc1ccc(-c2ccc3ncnc(Nc4ccc(OCc5cccc(F)c5)c(Cl)c4)c3c2)o1 [Lapatinib] + NC1(c2ccc(-c3nc4ccn5c(=O)[nH]nc5c4cc3-c3ccccc3)cc2)CCC1 [MK-2206] (first compound max 10 µM, 7x7, partner max 10 µM)",combination Emax,[1],0.948
same,combination Emax,[2],0.898
